According to PubChem BioAssay AID2060905 (Molecular Pharmacology Branch, DTP, NCI, 2025):
“And” between values parts separate entries of the source, which are not always exact repeats. Identical values can stand only once. One block for each molecule: values may come before it.

Tested on: 282377-053-R-J1-PDC complex spheroid viability
Experiment: Anticancer human tumor 282377-053-R-J1-PDC patient-derived colon adenocarcinoma cell line growth inhibition [RAS]
Conditions: for viability, T/C: stronger effect = lower value
In short: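 Multi-cell-type spheroids: tumor cells plus HUVEC endothelial cells and mesenchymal stem cells. RAS-pathway inhibitors were combined with targeted agents, each dosed in half-log steps down from clinical Cmax, or from 10 microM when Cmax was unknown.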
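Further: spheroids exposed to agents for seven days before readout.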
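Wherever viability, T/C is given: luminescence viability as percent of DMSO vehicle control wells.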

SMILES: CCC(CC)c1cc(NC2CCC(N)C2)n2nccc2n1 (centres undefined)
- viability, T/C (compound 1 µM): 112% [middle of 4 runs]
- viability, T/C (compound 3.16 µM): 10.4% [middle of 4 runs]
- viability, T/C (compound 10 µM): 3% [middle of 4 runs]
- IC50 (curve of compound): 1.96 µM [middle of 4 runs]

SMILES: CC(C)n1nc(-c2ccc3oc(N)nc3c2)c2c(N)ncnc21
- viability, T/C (compound 0.000316 µM): 91.6% [middle of 4 runs]
- viability, T/C (compound 0.001 µM): 112% and 102% (2×) and 89.9%
- viability, T/C (compound 0.00316 µM): 90.7% [middle of 4 runs]
- viability, T/C (compound 0.01 µM): 87.2% [middle of 4 runs]
- viability, T/C (compound 0.0316 µM): 74.9% [middle of 4 runs]
- viability, T/C (compound 0.1 µM): 51.8% [middle of 4 runs]
- IC50 (curve of compound): > 100 nM

SMILES: Nc1ccn(C2OC(CO)C(O)C2(F)F)c(=O)n1 (centres undefined)
- viability, T/C (compound 0.00316 µM): 94.8% [middle of 4 runs]
- viability, T/C (compound 0.01 µM): 101% [middle of 4 runs]
- IC50 (curve of compound): > 1000 nM and 221 nM and 274 nM

More lines, main results first:

- IC50 (curve of first compound, second compound 0.000949 µM): 1710 nM
- IC50 (curve of first compound, second compound 0.003 µM): 1480 nM
- IC50 (curve of first compound, second compound 0.00949 µM): 1720 nM
- IC50 (curve of first compound, second compound 0.03 µM): 1530 nM
- IC50 (curve of first compound, second compound 0.0949 µM): 1780 nM
- IC50 (curve of first compound, second compound 0.3 µM): 1800 nM
SMILES: CCC(CC)c1cc(NC2CCC(N)C2)n2nccc2n1 (centres undefined) + CCn1c(-c2cc(N3CCN(C)CC3)cnc2C(C)OC)c2c3cc(ccc31)-c1csc(n1)CC(NC(=O)C1CC1C)C(=O)N1CCCC(N1)C(=O)OCC(C)(C)C2
- viability, T/C (second compound 0.000949 µM, first compound 0.0316 µM): 85.5%
- viability, T/C (second compound 0.000949 µM, first compound 0.1 µM): 98.8%
- viability, T/C (second compound 0.000949 µM, first compound 0.316 µM): 98.5%
- viability, T/C (second compound 0.000949 µM, first compound 1 µM): 84.1%
- viability, T/C (second compound 0.000949 µM, first compound 3.16 µM): 11.1%
- viability, T/C (second compound 0.000949 µM, first compound 10 µM): 6.68%
- viability, T/C (second compound 0.003 µM, first compound 0.0316 µM): 89.4%
- viability, T/C (second compound 0.003 µM, first compound 0.1 µM): 86.5%
- viability, T/C (second compound 0.003 µM, first compound 0.316 µM): 81.2%
- viability, T/C (second compound 0.003 µM, first compound 1 µM): 70.5%
- viability, T/C (second compound 0.003 µM, first compound 3.16 µM): 10.4%
- viability, T/C (second compound 0.003 µM, first compound 10 µM): 3.1%
- viability, T/C (second compound 0.00949 µM, first compound 0.0316 µM): 81.9%
- viability, T/C (second compound 0.00949 µM, first compound 0.1 µM): 95.3%
- viability, T/C (second compound 0.00949 µM, first compound 0.316 µM): 72%
- viability, T/C (second compound 0.00949 µM, first compound 1 µM): 90.7%
- viability, T/C (second compound 0.00949 µM, first compound 3.16 µM): 10.8%
- viability, T/C (second compound 0.00949 µM, first compound 10 µM): 4.36%
- viability, T/C (second compound 0.03 µM, first compound 0.0316 µM): 76%
- viability, T/C (second compound 0.03 µM, first compound 0.1 µM): 82%
- viability, T/C (second compound 0.03 µM, first compound 0.316 µM): 85.7%
- viability, T/C (second compound 0.03 µM, first compound 1 µM): 71.2%
- viability, T/C (second compound 0.03 µM, first compound 3.16 µM): 13.2%
- viability, T/C (second compound 0.03 µM, first compound 10 µM): 7.45%
- viability, T/C (second compound 0.0949 µM, first compound 0.0316 µM): 95.7%
- viability, T/C (second compound 0.0949 µM, first compound 0.1 µM): 87.2%
- viability, T/C (second compound 0.0949 µM, first compound 0.316 µM): 76.1%
- viability, T/C (second compound 0.0949 µM, first compound 1 µM): 88.6%
- viability, T/C (second compound 0.0949 µM, first compound 3.16 µM): 13%
- viability, T/C (second compound 0.0949 µM, first compound 10 µM): 2.75%
- viability, T/C (second compound 0.3 µM, first compound 0.0316 µM): 94.7%
- viability, T/C (second compound 0.3 µM, first compound 0.1 µM): 78%
- viability, T/C (second compound 0.3 µM, first compound 0.316 µM): 86.1%
- viability, T/C (second compound 0.3 µM, first compound 1 µM): 94.9%
- viability, T/C (second compound 0.3 µM, first compound 3.16 µM): 13.4%
- viability, T/C (second compound 0.3 µM, first compound 10 µM): 3.35%

- IC50 (curve of compound): < 31.6 nM
SMILES: CC(=O)OC12COC1CC(O)C1(C)C(=O)C(O)C3=C(C)C(OC(=O)C(O)C(NC(=O)OC(C)(C)C)c4ccccc4)CC(O)(C(OC(=O)c4ccccc4)C21)C3(C)C (centres undefined)
- viability, T/C (compound 0.1 µM): 33.6% [middle of 4 runs]
- viability, T/C (compound 0.316 µM): 37.9% [middle of 4 runs]
